Results published in ChEMBL document CHEMBL3885861, “Open TG-GATES”.

Species: Rattus norvegicus
Test: Open TG-GATES - Regimen: Daily Repeat
Assay type: toxicity, organism-based, Sprague-Dawley
Parameters: regimen Daily Repeat, gender Male, age 6 weeks
Details: in vivo, po, 0 mg/kg, route gavage, dose level Control; for APTT / Bas / Eos / Fbg / Hb / Ht / Lym / MCH / MCHC / MCV / Mono / Neu / PT / Plat / RBC / Ret / WBC: tissue Blood; for KIDNEY_L / KIDNEY_R / KIDNEY_TOTAL: tissue Kidney; for LIVER: tissue Liver; for A/G / ALP / ALT / AST / BUN / CRE / Ca / Cl / DBIL / GLC / IP / LDH / Na / PL / RALB / TBIL / TC / TG / TP / gamma-GTP: tissue Plasma

`NC(N)=Nc1nc(CSCCC(N)=NS(N)(=O)=O)cs1` [FAMOTIDINE] was tested, and the TERMINAL_BW (72 h, time 3 day) was 227 g, the APTT (72 h, time 3 day) was 19.5 s and the Bas (72 h, time 3 day) was 0%. For the same molecule, the Eos (72 h, time 3 day) was 1%, the Fbg (72 h, time 3 day) was 221.4 mg/dL and the Hb (72 h, time 3 day) was 13.5 g/dL. It also gave a Ht (72 h, time 3 day) of 37.4%, a Lym (72 h, time 3 day) of 73.8% and an MCH (72 h, time 3 day) of 22.4 pg. The MCHC (72 h, time 3 day) was 36.1%, the MCV (72 h, time 3 day) was 61.9 fL and the Mono (72 h, time 3 day) was 3.2%. For the same molecule, the Neu (72 h, time 3 day) was 20.6%, the PT (72 h, time 3 day) was 11.8 s and the Plat (72 h, time 3 day) was 125.1 x10_4/uL. The RBC (72 h, time 3 day) was 604.6 x10_4/ul, the Ret (72 h, time 3 day) was 5.7% and the WBC (72 h, time 3 day) was 75.1 x10_2/uL. For the same molecule, the KIDNEY_L (72 h, time 3 day) was 1 g, the KIDNEY_R (72 h, time 3 day) was 1 g and the KIDNEY_TOTAL (72 h, time 3 day) was 2 g. For the same molecule, the LIVER (72 h, time 3 day) was 10.4 g, the A/G (72 h, time 3 day) was 1.5 and the ALP (72 h, time 3 day) was 999.6 IU/L. The ALT (72 h, time 3 day) was 31.4 IU/L, the AST (72 h, time 3 day) was 64.2 IU/L and the BUN (72 h, time 3 day) was 13.8 mg/dL. For the same molecule, the CRE (72 h, time 3 day) was 0.4 mg/dL, the Ca (72 h, time 3 day) was 10.7 mg/dL and the Cl (72 h, time 3 day) was 103.2 meq/L. For the same molecule, the DBIL (72 h, time 3 day) was 0.086 mg/dL, the GLC (72 h, time 3 day) was 190.6 mg/dL and the IP (72 h, time 3 day) was 7.2 mg/dL. It also gave an LDH (72 h, time 3 day) of 194 IU/L, a Na (72 h, time 3 day) of 139.8 meq/L and a PL (72 h, time 3 day) of 139.6 mg/dL. The RALB (72 h, time 3 day) was 3.4 g/dL, the TBIL (72 h, time 3 day) was 0.1 mg/dL and the TC (72 h, time 3 day) was 76.6 mg/dL. It also gave a TG (72 h, time 3 day) of 78.4 mg/dL, a TP (72 h, time 3 day) of 5.5 g/dL and a gamma-GTP (72 h, time 3 day) of 1 IU/L. It also gave a TERMINAL_BW ([…], time 7 day) of 257.4 g, a TERMINAL_BW ([…], time 14 day) of 314.4 g and a TERMINAL_BW ([…], time 28 day) of 376 g. It also gave an APTT ([…], time 7 day) of 20.1 s, a Bas ([…], time 7 day) of 0% and an Eos ([…], time 7 day) of 0.8%. The Fbg ([…], time 7 day) was 230 mg/dL, the Hb ([…], time 7 day) was 13.7 g/dL and the Ht ([…], time 7 day) was 38.3%. The Lym ([…], time 7 day) was 80.4%, the MCH ([…], time 7 day) was 22.2 pg and the MCHC ([…], time 7 day) was 35.8%. The MCV ([…], time 7 day) was 62 fL, the Mono ([…], time 7 day) was 2.4% and the Neu ([…], time 7 day) was 14.8%. It also gave a PT ([…], time 7 day) of 11.8 s, a Plat ([…], time 7 day) of 126.2 x10_4/uL and an RBC ([…], time 7 day) of 618.2 x10_4/ul. The Ret ([…], time 7 day) was 5%, the WBC ([…], time 7 day) was 82.2 x10_2/uL and the APTT ([…], time 14 day) was 22.3 s. It also gave a Bas ([…], time 14 day) of 0%, an Eos ([…], time 14 day) of 1% and a Fbg ([…], time 14 day) of 229.4 mg/dL. The Hb ([…], time 14 day) was 14.3 g/dL, the Ht ([…], time 14 day) was 41.9% and the Lym ([…], time 14 day) was 81.8%. For the same molecule, the MCH ([…], time 14 day) was 20.8 pg, the MCHC ([…], time 14 day) was 34.1% and the MCV ([…], time 14 day) was 60.9 fL. The Mono ([…], time 14 day) was 1.6%, the Neu ([…], time 14 day) was 14.2% and the PT ([…], time 14 day) was 12.3 s. For the same molecule, the Plat ([…], time 14 day) was 118.4 x10_4/uL, the RBC ([…], time 14 day) was 689 x10_4/ul and the Ret ([…], time 14 day) was 4.5%. The WBC ([…], time 14 day) was 112.3 x10_2/uL, the APTT ([…], time 28 day) was 21.3 s and the Bas ([…], time 28 day) was 0%. It also gave an Eos ([…], time 28 day) of 1%, a Fbg ([…], time 28 day) of 233.6 mg/dL and a Hb ([…], time 28 day) of 15.4 g/dL. It also gave a Ht ([…], time 28 day) of 43.5%, a Lym ([…], time 28 day) of 80.8% and an MCH ([…], time 28 day) of 20 pg. It also gave an MCHC ([…], time 28 day) of 35.3%, an MCV ([…], time 28 day) of 56.6 fL and a Mono ([…], time 28 day) of 2.2%. The Neu ([…], time 28 day) was 14.6%, the PT ([…], time 28 day) was 12.2 s and the Plat ([…], time 28 day) was 98.4 x10_4/uL. For the same molecule, the RBC ([…], time 28 day) was 769 x10_4/ul, the Ret ([…], time 28 day) was 2.3% and the WBC ([…], time 28 day) was 84.1 x10_2/uL. It also gave a KIDNEY_L ([…], time 7 day) of 1.1 g, a KIDNEY_R ([…], time 7 day) of 1.1 g and a KIDNEY_TOTAL ([…], time 7 day) of 2.2 g. It also gave a KIDNEY_L ([…], time 14 day) of 1.3 g, a KIDNEY_R ([…], time 14 day) of 1.2 g and a KIDNEY_TOTAL ([…], time 14 day) of 2.5 g. It also gave a KIDNEY_L ([…], time 28 day) of 1.4 g, a KIDNEY_R ([…], time 28 day) of 1.4 g and a KIDNEY_TOTAL ([…], time 28 day) of 2.8 g. The LIVER ([…], time 7 day) was 12.2 g, the LIVER ([…], time 14 day) was 14 g and the LIVER ([…], time 28 day) was 15.1 g. It also gave an A/G ([…], time 7 day) of 1.5, an ALP ([…], time 7 day) of 1109 IU/L and an ALT ([…], time 7 day) of 39.6 IU/L. It also gave an AST ([…], time 7 day) of 71.4 IU/L, a BUN ([…], time 7 day) of 16.6 mg/dL and a CRE ([…], time 7 day) of 0.4 mg/dL. For the same molecule, the Ca ([…], time 7 day) was 10.7 mg/dL, the Cl ([…], time 7 day) was 102.8 meq/L and the DBIL ([…], time 7 day) was 0.094 mg/dL. For the same molecule, the GLC ([…], time 7 day) was 200.6 mg/dL, the IP ([…], time 7 day) was 7.5 mg/dL and the LDH ([…], time 7 day) was 176.2 IU/L. The Na ([…], time 7 day) was 140.6 meq/L, the PL ([…], time 7 day) was 156.6 mg/dL and the RALB ([…], time 7 day) was 3.5 g/dL. For the same molecule, the TBIL ([…], time 7 day) was 0.2 mg/dL, the TC ([…], time 7 day) was 78 mg/dL and the TG ([…], time 7 day) was 101.8 mg/dL. For the same molecule, the TP ([…], time 7 day) was 5.7 g/dL, the gamma-GTP ([…], time 7 day) was 0.8 IU/L and the A/G ([…], time 14 day) was 1.5. The ALP ([…], time 14 day) was 794.6 IU/L, the ALT ([…], time 14 day) was 33.4 IU/L and the AST ([…], time 14 day) was 62 IU/L. It also gave a BUN ([…], time 14 day) of 15.8 mg/dL, a CRE ([…], time 14 day) of 0.5 mg/dL and a Ca ([…], time 14 day) of 10.8 mg/dL. It also gave a Cl ([…], time 14 day) of 103.2 meq/L, a DBIL ([…], time 14 day) of 0.096 mg/dL and a GLC ([…], time 14 day) of 208 mg/dL. It also gave an IP ([…], time 14 day) of 7.2 mg/dL, an LDH ([…], time 14 day) of 153.2 IU/L and a Na ([…], time 14 day) of 140.4 meq/L. The PL ([…], time 14 day) was 146.6 mg/dL, the RALB ([…], time 14 day) was 3.4 g/dL and the TBIL ([…], time 14 day) was 0.2 mg/dL. For the same molecule, the TC ([…], time 14 day) was 75 mg/dL, the TG ([…], time 14 day) was 96.4 mg/dL and the TP ([…], time 14 day) was 5.7 g/dL. It also gave a gamma-GTP ([…], time 14 day) of 1.4 IU/L, an A/G ([…], time 28 day) of 1.3 and an ALP ([…], time 28 day) of 664.6 IU/L. For the same molecule, the ALT ([…], time 28 day) was 32.4 IU/L, the AST ([…], time 28 day) was 59 IU/L and the BUN ([…], time 28 day) was 18.6 mg/dL. For the same molecule, the CRE ([…], time 28 day) was 0.6 mg/dL, the Ca ([…], time 28 day) was 10.2 mg/dL and the Cl ([…], time 28 day) was 103.6 meq/L. The DBIL ([…], time 28 day) was 0.07 mg/dL, the GLC ([…], time 28 day) was 217.4 mg/dL and the IP ([…], time 28 day) was 6.7 mg/dL. It also gave an LDH ([…], time 28 day) of 123 IU/L, a Na ([…], time 28 day) of 141 meq/L and a PL ([…], time 28 day) of 141.8 mg/dL. The RALB ([…], time 28 day) was 3.5 g/dL, the TBIL ([…], time 28 day) was 0.1 mg/dL and the TC ([…], time 28 day) was 74.6 mg/dL. It also gave a TG ([…], time 28 day) of 82.8 mg/dL, a TP ([…], time 28 day) of 6.1 g/dL and a gamma-GTP ([…], time 28 day) of 1 IU/L.
